# Test results from PubChem BioAssay AID192 (DTP/NCI, 2004).
# “And” between values parts separate entries of the source, which are not always exact repeats. Equal values may be shown once. Toxic doses and inconclusive results are not listed.
# Tested on: BDF1 mice, B16 melanoma ip, median survival T/C
# Experiment: NCI In Vivo Anticancer Drug Screen. Data for tumor model B16 Melanoma (intraperitoneal) in B6D2F1 (BDF1) mice
# Conditions: endpoint: median survival time, higher = longer survival
# Summary of the method: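 Compounds were tested in mice carrying transplantable tumors. Survival or tumor size was recorded, and each value is the treated-group measurement (T) divided by that of the vehicle-treated control group (C).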
# [1] = dose: 12.5 mg/kg/injection, schedule: Q01DX009 (ip), vehicle: saline
# [2] = dose: 25.0 mg/kg/injection, schedule: Q01DX009 (ip), vehicle: saline
# [3] = dose: 50.0 mg/kg/injection, schedule: Q01DX009 (ip), vehicle: Klucel (hydroxypropylcellulose) (HPC)
# [4] = dose: 100.0 mg/kg/injection, schedule: Q01DX009 (ip), vehicle: Klucel (hydroxypropylcellulose) (HPC)
# [5] = dose: 2.0 mg/kg/injection, schedule: Q01DX009 (ip), vehicle: saline
# [6] = dose: 8.0 mg/kg/injection, schedule: Q01DX009 (ip), vehicle: saline
# [7] = dose: 6.25 mg/kg/injection, schedule: Q01DX009 (ip), vehicle: saline
# [8] = dose: 200.0 mg/kg/injection, schedule: Q01DX009 (ip), vehicle: Klucel (hydroxypropylcellulose) (HPC)
# [9] = dose: 400.0 mg/kg/injection, schedule: Q01DX009 (ip), vehicle: Klucel (hydroxypropylcellulose) (HPC)
# [10] = dose: 200.0 mg/kg/injection, schedule: Q01DX009 (ip), vehicle: saline
# [11] = dose: 400.0 mg/kg/injection, schedule: Q01DX009 (ip), vehicle: saline
# [12] = dose: 25.0 mg/kg/injection, schedule: Q01DX009 (ip), vehicle: Klucel (hydroxypropylcellulose) (HPC)
compound,measurement,setting,value
C=C(C)[C@@H]1CC[C@@H]2C(=CC[C@]3(C)C([C@H](C)CC/C=C(/C)C(=O)O)CC[C@@]23C)[C@@]1(C)CCC(=O)O (stereo not given in full),T/C,"dose: 22.5 mg/kg/injection, schedule: Q01DX009 (ip), vehicle: saline + alcohol",98 % of control
same,T/C,"dose: 45.0 mg/kg/injection, schedule: Q01DX009 (ip), vehicle: saline + alcohol",98 % of control
O=C(O)c1cccc2c1S(=O)(=O)c1ccccc1C2=O,T/C,"dose: 75.0 mg/kg/injection, schedule: Q01DX009 (ip), vehicle: Klucel (hydroxypropylcellulose) (HPC)",100 % of control
same,T/C,"dose: 150.0 mg/kg/injection, schedule: Q01DX009 (ip), vehicle: Klucel (hydroxypropylcellulose) (HPC)",97 % of control
same,T/C,"dose: 300.0 mg/kg/injection, schedule: Q01DX009 (ip), vehicle: Klucel (hydroxypropylcellulose) (HPC)",100 % of control
CNc1n[n+](-c2ccccc2)no1,T/C,[1],119 % of control
same,T/C,[2],124 % of control
CCCCCCCCC1CCC(N)CC1 (stereo not given),T/C,[3],93 % of control
same,T/C,[4],86 % of control
CN(C)CCCN1c2ccccc2Sc2ccc(C(F)(F)F)cc21,T/C,"dose: 0.06 mg/kg/injection, schedule: Q01DX009 (ip), vehicle: saline",89 % of control
same,T/C,"dose: 0.25 mg/kg/injection, schedule: Q01DX009 (ip), vehicle: saline",97 % of control
same,T/C,"dose: 0.5 mg/kg/injection, schedule: Q01DX009 (ip), vehicle: saline",109 % of control
same,T/C,[5],104 % of control
same,T/C,[6],109 % of control
c1ccc(OCCC[P+](c2ccccc2)(c2ccccc2)c2ccccc2)cc1,T/C,"dose: 5.0 mg/kg/injection, schedule: Q01DX009 (ip), vehicle: saline",107 % of control
same,T/C,"dose: 10.0 mg/kg/injection, schedule: Q01DX009 (ip), vehicle: saline",105 % of control
same,T/C,"dose: 20.0 mg/kg/injection, schedule: Q01DX009 (ip), vehicle: saline",95 % of control
same,T/C,"dose: 40.0 mg/kg/injection, schedule: Q01DX009 (ip), vehicle: saline",97 % of control
COc1c(Br)c2c(c(OC)c1OC)-c1ccc(OC)c(=O)cc1C(NC(C)=O)CC2 (stereo not given),T/C,"dose: 0.38 mg/kg/injection, schedule: Q01DX009 (ip), vehicle: Klucel (hydroxypropylcellulose) (HPC)",113 % of control
same,T/C,"dose: 0.75 mg/kg/injection, schedule: Q01DX009 (ip), vehicle: Klucel (hydroxypropylcellulose) (HPC)",115 % of control
same,T/C,"dose: 1.5 mg/kg/injection, schedule: Q01DX009 (ip), vehicle: Klucel (hydroxypropylcellulose) (HPC)",112 % of control
same,T/C,"dose: 3.0 mg/kg/injection, schedule: Q01DX009 (ip), vehicle: Klucel (hydroxypropylcellulose) (HPC)",118 % of control
CCOC(=O)CC1=CCCCC1,T/C,"dose: 70.0 mg/kg/injection, schedule: Q01DX009 (ip), vehicle: Klucel (hydroxypropylcellulose) (HPC)",100 % of control
same,T/C,"dose: 140.0 mg/kg/injection, schedule: Q01DX009 (ip), vehicle: Klucel (hydroxypropylcellulose) (HPC)",106 % of control
same,T/C,"dose: 280.0 mg/kg/injection, schedule: Q01DX009 (ip), vehicle: Klucel (hydroxypropylcellulose) (HPC)",100 % of control
[Cl][Ni][Cl].[NH-]CCN1CC1.[NH-]CCN1CC1,T/C,"dose: 0.78 mg/kg/injection, schedule: Q01DX009 (ip), vehicle: saline",98 % of control
same,T/C,"dose: 1.56 mg/kg/injection, schedule: Q01DX009 (ip), vehicle: saline",97 % of control
same,T/C,"dose: 3.12 mg/kg/injection, schedule: Q01DX009 (ip), vehicle: saline",90 % of control
O=C(O)C(O)C(=O)O.[NH-]C1CCCCC1[NH-].[Pt+2],T/C,"dose: 20.0 mg/kg/injection, schedule: Q01DX009 (ip), vehicle: other",161 % of control
same,T/C,"dose: 40.0 mg/kg/injection, schedule: Q01DX009 (ip), vehicle: other",150 % of control
C[N+]1(C)CCCC1,T/C,[7],111 % of control
same,T/C,"dose: 6.25 mg/kg/injection, schedule: Q04DX003 (ip), vehicle: saline",95 % of control
same,T/C,[1],100 % of control
same,T/C,"dose: 12.5 mg/kg/injection, schedule: Q04DX003 (ip), vehicle: saline",95 % of control
same,T/C,[2],91 % of control
same,T/C,"dose: 25.0 mg/kg/injection, schedule: Q04DX003 (ip), vehicle: saline",95 % of control
CCCCCCCCCC(O)CCCCC (stereo not given),T/C,"dose: 75.0 mg/kg/injection, schedule: Q04DX003 (ip), vehicle: saline with Tween-80",102 % of control
same,T/C,"dose: 150.0 mg/kg/injection, schedule: Q04DX003 (ip), vehicle: saline with Tween-80",94 % of control
same,T/C,"dose: 300.0 mg/kg/injection, schedule: Q04DX003 (ip), vehicle: saline with Tween-80",100 % of control
CN(N=O)C(=O)N[C@@H](C=O)[C@@H](O)[C@H](O)[C@H](O)CO,T/C,"dose: 12.5 mg/kg/injection, schedule: Q01DX009 (ip), vehicle: citric acid",105 % of control
same,T/C,"dose: 12.5 mg/kg/injection, schedule: Q01DX009 (ip), vehicle: other",109 % of control and 117 % of control (2×)
same,T/C,"dose: 25.0 mg/kg/injection, schedule: Q01DX009 (ip), vehicle: citric acid",106 % of control
same,T/C,"dose: 25.0 mg/kg/injection, schedule: Q01DX009 (ip), vehicle: other",105 % of control and 118 % of control and 124 % of control
same,T/C,"dose: 37.5 mg/kg/injection, schedule: Q04DX003 (ip), vehicle: saline",90 % of control and 115 % of control
same,T/C,"dose: 50.0 mg/kg/injection, schedule: Q01DX009 (ip), vehicle: citric acid",117 % of control
same,T/C,"dose: 75.0 mg/kg/injection, schedule: Q04DX003 (ip), vehicle: saline",118 % of control
same,T/C,"dose: 150.0 mg/kg/injection, schedule: Q04DX003 (ip), vehicle: saline",116 % of control
same,T/C,"dose: 300.0 mg/kg/injection, schedule: Q04DX003 (ip), vehicle: saline",45 % of control and 118 % of control
CN1CCC=C(C(=O)N2c3ccccc3Sc3ccc(Cl)cc32)C1,T/C,[7],96 % of control
same,T/C,[1],89 % of control
CCCCCCCCCCCCOc1ccccn1,T/C,[8],88 % of control
same,T/C,[9],86 % of control
CC(O)CN1CC(C)OC(C)C1 (stereo not given),T/C,"dose: 100.0 mg/kg/injection, schedule: Q01DX009 (ip), vehicle: saline",97 % of control
same,T/C,[10],90 % of control
same,T/C,[11],97 % of control
CCC[CH2][Sn]1([CH2]CCC)[S]CC[N]1S(=O)(=O)c1ccc(C)cc1,T/C,"dose: 6.0 mg/kg/injection, schedule: Q01DX009 (ip), vehicle: saline with Tween-80",95 % of control
same,T/C,"dose: 12.5 mg/kg/injection, schedule: Q01DX009 (ip), vehicle: saline with Tween-80",108 % of control
CCCCCCCCCC(O)CCC (stereo not given),T/C,[12],103 % of control
same,T/C,[3],99 % of control
same,T/C,[4],92 % of control
Clc1ccc2c(c1)C([P+](c1ccccc1)(c1ccccc1)c1ccccc1)c1cc(Cl)cc(Cl)c1-2 (stereo not given),T/C,"dose: 100.0 mg/kg/injection, schedule: Q01DX009 (ip), vehicle: saline with Tween-80",89 % of control
same,T/C,"dose: 200.0 mg/kg/injection, schedule: Q01DX009 (ip), vehicle: saline with Tween-80",95 % of control
same,T/C,"dose: 400.0 mg/kg/injection, schedule: Q01DX009 (ip), vehicle: saline with Tween-80",89 % of control
CC(C)CC(N)C(=O)OCc1ccccc1 (stereo not given),T/C,"dose: 100.0 mg/kg/injection, schedule: Q04DX003 (ip), vehicle: saline",109 % of control
same,T/C,[10],93 % of control
same,T/C,"dose: 200.0 mg/kg/injection, schedule: Q04DX003 (ip), vehicle: saline",104 % of control
same,T/C,[11],91 % of control
same,T/C,"dose: 400.0 mg/kg/injection, schedule: Q04DX003 (ip), vehicle: saline",100 % of control
c1ccc(N/N=C2/CCN3CCCc4cccc2c43)cc1,T/C,"dose: 25.0 micrograms/kg/injection, schedule: Q01DX009 (ip), vehicle: DMSO",86 % of control
CCCCOC(OCCCC)C(C)=O,T/C,[4],96 % of control
same,T/C,[8],93 % of control
same,T/C,[9],93 % of control
Cc1cc(Cl)ccc1NC(=O)c1ccccc1,T/C,[4],103 % of control
same,T/C,[8],99 % of control
same,T/C,[9],100 % of control
OC(CCN1CCCC1)(c1ccccc1)C1CCCCC1 (stereo not given),T/C,"dose: 6.25 mg/kg/injection, schedule: Q01DX009 (ip), vehicle: Klucel (hydroxypropylcellulose) (HPC)",101 % of control
same,T/C,[12],98 % of control
same,T/C,[3],93 % of control
same,T/C,[4],87 % of control
COc1cc([C@@H]2c3cc4c(cc3[C@H](O)[C@H]3COC(=O)[C@H]23)OCO4)cc(OC)c1OC,T/C,[5],102 % of control
same,T/C,"dose: 4.0 mg/kg/injection, schedule: Q01DX009 (ip), vehicle: saline",109 % of control
same,T/C,[6],104 % of control
NC(=O)Oc1ccc(Cc2ccccc2)cc1,T/C,"dose: 100.0 mg/kg/injection, schedule: Q04DX003 (ip), vehicle: Klucel (hydroxypropylcellulose) (HPC)",95 % of control
same,T/C,"dose: 200.0 mg/kg/injection, schedule: Q04DX003 (ip), vehicle: Klucel (hydroxypropylcellulose) (HPC)",91 % of control
same,T/C,"dose: 400.0 mg/kg/injection, schedule: Q04DX003 (ip), vehicle: Klucel (hydroxypropylcellulose) (HPC)",97 % of control
